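Each compound was tested at five concentrations against cells in 96-well plates for 48 hours. GI50: concentration for 50% inhibition of growth. TGI is the concentration that stops growth completely.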
Key:
Experiment in all cases: growth of human tumour cells (NCI), 48 h
[1] = test system: MCF7 breast
[2] = test system: OVCAR-8 ovarian
[3] = test system: SK-MEL-5 melanoma
[4] = test system: A549 NSCLC
[5] = test system: HOP-62 NSCLC
[6] = test system: HOP-92 NSCLC
[7] = test system: CAKI-1 renal
[8] = test system: MALME-3M melanoma
[9] = test system: HL-60(TB) leukemia
[10] = test system: BT-549 breast
[11] = test system: SR leukemia
[12] = test system: ACHN renal
[13] = test system: PC-3 prostate
[14] = test system: COLO 205 colon
[15] = test system: NCI-H23 lung
[16] = test system: HCT-15 colon
[17] = test system: SF-539 CNS
[18] = test system: SN12C renal
[19] = test system: 786-0 renal
[20] = test system: OVCAR-3 ovarian
[21] = test system: MDA-MB-231 breast
[22] = test system: SK-MEL-28 melanoma
[23] = test system: TK-10 renal
[24] = test system: OVCAR-5 ovarian
[25] = test system: LOX IMVI melanoma
[26] = test system: NCI-H522 lung
[27] = test system: CCRF-CEM leukemia
[28] = test system: UO-31 renal
[29] = test system: HT29 colon
[30] = test system: K-562 leukemia
[31] = test system: SF-295 CNS
[32] = test system: IGROV1 ovarian
[33] = test system: M14 melanoma
[34] = test system: HCT-116 colon
[35] = test system: MOLT-4 leukemia
[36] = test system: EKVX NSCLC
[37] = test system: SNB-19 CNS
[38] = test system: SK-OV-3 ovarian
[39] = test system: KM12 colon
[40] = test system: NCI-H226 lung
[41] = test system: NCI-H460 lung
[42] = test system: SF-268 CNS
[43] = test system: UACC-62 melanoma
[44] = test system: RXF 393 renal
[45] = test system: A498 renal
[46] = test system: SK-MEL-2 melanoma
[47] = test system: SW-620 colon
[48] = test system: T-47D breast
[49] = test system: MDA-MB-435
[50] = test system: NCI/ADR-RES ovarian
[51] = test system: DU-145 prostate
[52] = test system: HS 578T breast
[53] = test system: OVCAR-4 ovarian
[54] = test system: UACC-257 melanoma
[55] = test system: RPMI-8226 leukemia
[56] = test system: SNB-75 CNS
[57] = test system: U251 CNS
[58] = test system: HCC-2998 colon

For `C[C@H](c1ccc(Cl)cc1[N+](=O)[O-])N1C(=O)c2cc(I)ccc2NC(=O)[C@H]1c1ccc(Cl)cc1`, the GI50 [1] was 6.53 µM, the TGI [1] was > 100 µM and the GI50 [2] was > 100 µM. The TGI [2] was > 100 µM, the GI50 [3] was > 100 µM and the TGI [3] was > 100 µM. For the same compound, the GI50 [4] was 6.01 µM, the TGI [4] was > 100 µM and the GI50 [5] was > 100 µM. For the same compound, the TGI [5] was > 100 µM, the GI50 [6] was 2.79 µM and the TGI [6] was > 100 µM. The GI50 [7] was 4.2 µM, the TGI [7] was > 100 µM and the GI50 [8] was > 100 µM. The TGI [8] was > 100 µM, the GI50 [9] was > 100 µM and the TGI [9] was > 100 µM. The GI50 [10] was > 100 µM, the TGI [10] was > 100 µM and the GI50 [11] was 28 µM. The TGI [11] was > 100 µM, the GI50 [12] was > 100 µM and the TGI [12] was > 100 µM. For the same compound, the GI50 [13] was 4.86 µM, the TGI [13] was > 100 µM and the GI50 [14] was > 100 µM. For the same compound, the TGI [14] was > 100 µM, the GI50 [15] was > 100 µM and the TGI [15] was > 100 µM. For the same compound, the GI50 [16] was > 100 µM, the TGI [16] was > 100 µM and the GI50 [17] was > 100 µM. The TGI [17] was > 100 µM, the GI50 [18] was > 100 µM and the TGI [18] was > 100 µM. For the same compound, the GI50 [19] was > 100 µM, the TGI [19] was > 100 µM and the GI50 [20] was 8.83 µM. For the same compound, the TGI [20] was > 100 µM, the GI50 [21] was 3.46 µM and the TGI [21] was > 100 µM. For the same compound, the GI50 [22] was > 100 µM, the TGI [22] was > 100 µM and the GI50 [23] was > 100 µM. The TGI [23] was > 100 µM, the GI50 [24] was > 100 µM and the TGI [24] was > 100 µM. The GI50 [25] was > 100 µM, the TGI [25] was > 100 µM and the GI50 [26] was 8.94 µM. For the same compound, the TGI [26] was > 100 µM, the GI50 [27] was > 100 µM and the TGI [27] was > 100 µM. For the same compound, the GI50 [28] was 2.54 µM, the TGI [28] was > 100 µM and the GI50 [29] was > 100 µM. For the same compound, the TGI [29] was > 100 µM, the GI50 [30] was 77 µM and the TGI [30] was > 100 µM. The GI50 [31] was 8.18 µM, the TGI [31] was > 100 µM and the GI50 [32] was 8.21 µM. The TGI [32] was > 100 µM, the GI50 [33] was 85.4 µM and the TGI [33] was > 100 µM. For the same compound, the GI50 [34] was 5.78 µM, the TGI [34] was > 100 µM and the GI50 [35] was 8.76 µM. For the same compound, the TGI [35] was > 100 µM, the GI50 [36] was 4.98 µM and the TGI [36] was > 100 µM. For the same compound, the GI50 [37] was > 100 µM, the TGI [37] was > 100 µM and the GI50 [38] was > 100 µM. The TGI [38] was > 100 µM, the GI50 [39] was > 100 µM and the TGI [39] was > 100 µM. The GI50 [40] was > 100 µM, the TGI [40] was > 100 µM and the GI50 [41] was 6.61 µM. The TGI [41] was > 100 µM, the GI50 [42] was > 100 µM and the TGI [42] was > 100 µM. For the same compound, the GI50 [43] was > 100 µM, the TGI [43] was > 100 µM and the GI50 [44] was 9.07 µM. The TGI [44] was > 100 µM, the GI50 [45] was > 100 µM and the TGI [45] was > 100 µM. The GI50 [46] was > 100 µM, the TGI [46] was > 100 µM and the GI50 [47] was > 100 µM. The TGI [47] was > 100 µM, the GI50 [48] was 5.37 µM and the TGI [48] was > 100 µM. For the same compound, the GI50 [49] was > 100 µM, the TGI [49] was > 100 µM and the GI50 [50] was > 100 µM. For the same compound, the TGI [50] was > 100 µM, the GI50 [51] was > 100 µM and the TGI [51] was > 100 µM. The GI50 [52] was 6.5 µM, the TGI [52] was > 100 µM and the GI50 [53] was 7.08 µM. For the same compound, the TGI [53] was > 100 µM, the GI50 [54] was 33.9 µM and the TGI [54] was > 100 µM. The GI50 [55] was > 100 µM, the TGI [55] was > 100 µM and the GI50 [56] was > 100 µM. The TGI [56] was > 100 µM, the GI50 [57] was > 100 µM and the TGI [57] was > 100 µM.
For `COc1cc(OC)c2c(c1Cl)O[C@]1(C2=O)C(OCc2ccccc2)=CC(=O)C[C@H]1C`, the GI50 [1] was 0.395 µM, the TGI [1] was 25.9 µM and the GI50 [2] was 1.02 µM. For the same compound, the TGI [2] was 29.4 µM, the GI50 [3] was 1.15 µM and the TGI [3] was 11.8 µM. The GI50 [4] was 0.769 µM, the TGI [4] was > 100 µM and the GI50 [5] was 1.36 µM. The TGI [5] was 62.2 µM, the GI50 [7] was 0.656 µM and the TGI [7] was 60.6 µM. The GI50 [8] was 12 µM, the TGI [8] was 55.8 µM and the GI50 [58] was 1.49 µM. For the same compound, the TGI [58] was 7.03 µM, the GI50 [9] was 0.531 µM and the TGI [9] was 3.52 µM. It also gave a GI50 [10] of 2.28 µM, a TGI [10] of 21.1 µM and a GI50 [11] of 0.331 µM. For the same compound, the TGI [11] was 10.8 µM, the GI50 [12] was 0.785 µM and the TGI [12] was > 100 µM. It also gave a GI50 [13] of 1.6 µM, a TGI [13] of 63.3 µM and a GI50 [14] of 0.43 µM. The TGI [14] was 1.69 µM, the GI50 [15] was 1.02 µM and the TGI [15] was 39.5 µM. For the same compound, the GI50 [16] was 0.487 µM, the TGI [16] was > 100 µM and the GI50 [17] was 0.884 µM. It also gave a TGI [17] of 9.28 µM, a GI50 [18] of 0.833 µM and a TGI [18] of 14 µM. The GI50 [19] was 0.944 µM, the TGI [19] was 79.7 µM and the GI50 [20] was 0.986 µM. The TGI [20] was 11.4 µM, the GI50 [21] was 1.22 µM and the TGI [21] was 5.02 µM. For the same compound, the GI50 [22] was 1.85 µM, the TGI [22] was 24.8 µM and the GI50 [23] was 4.34 µM. For the same compound, the TGI [23] was 63.2 µM, the GI50 [24] was 1.83 µM and the TGI [24] was > 100 µM. It also gave a GI50 [26] of 0.694 µM, a TGI [26] of 4.66 µM and a GI50 [27] of 0.532 µM. For the same compound, the TGI [27] was 12.2 µM, the GI50 [28] was 2.51 µM and the TGI [28] was 61.2 µM. It also gave a GI50 [29] of 0.534 µM, a TGI [29] of 15.8 µM and a GI50 [30] of 0.538 µM. The TGI [30] was 29.1 µM, the GI50 [31] was 0.492 µM and the TGI [31] was 5.59 µM. The GI50 [32] was 2.79 µM, the TGI [32] was 79.6 µM and the GI50 [33] was 0.612 µM. The TGI [33] was 40.5 µM, the GI50 [34] was 0.46 µM and the TGI [34] was > 100 µM. The GI50 [35] was 0.826 µM, the TGI [35] was 8.79 µM and the GI50 [37] was 5.68 µM. The TGI [37] was 98.8 µM, the GI50 [38] was 1.29 µM and the TGI [38] was 7.75 µM. For the same compound, the GI50 [39] was 0.596 µM, the TGI [39] was > 100 µM and the GI50 [40] was 4.18 µM. For the same compound, the TGI [40] was 30.2 µM, the GI50 [41] was 0.401 µM and the TGI [41] was 12.6 µM. It also gave a GI50 [42] of 1.82 µM, a TGI [42] of 53.8 µM and a GI50 [43] of 0.72 µM. For the same compound, the TGI [43] was 18.6 µM, the GI50 [44] was 0.899 µM and the TGI [44] was 29.1 µM. For the same compound, the GI50 [45] was 0.413 µM, the TGI [45] was 5.58 µM and the GI50 [47] was 0.641 µM. The TGI [47] was > 100 µM, the GI50 [48] was 0.792 µM and the TGI [48] was 67.8 µM. The GI50 [49] was 0.23 µM, the TGI [49] was 0.549 µM and the GI50 [50] was 0.584 µM. It also gave a TGI [50] of 3.72 µM, a GI50 [51] of 0.485 µM and a TGI [51] of 5.63 µM. For the same compound, the GI50 [52] was 3.17 µM, the TGI [52] was 32.5 µM and the GI50 [53] was 7.16 µM. The TGI [53] was 73.3 µM, the GI50 [54] was 1.76 µM and the TGI [54] was 49.2 µM. For the same compound, the GI50 [55] was 1.13 µM, the TGI [55] was 17 µM and the GI50 [56] was 0.936 µM. The TGI [56] was 27.4 µM.
